Legend:
[1] = system: transformed 208Fsrc3 cells; assay: apoptosis induction mediated by added myeloperoxidase (MPO); format: cell-based, rat; details: 200 mU/ml MPO; 100 U/ml catalase, 50 mM taurine, 10 mM mannitol; 5 hours
Method: Instead of the autocrine apoptosis induction illustrated in Example 1, in the experiment illustrated in Example 2 the HOCl signalling pathway is accelerated by addition of exogenous MPO (FIG. 2A) or the NO/peroxynitrite pathway is induced by addition of the rapidly decomposing NO donor DEA NONOate.
12 500 transformed 208Fsrc3 cells per preparation (96 hole plate, 100 μl medium) were sown. Under A these also received 200 mU/ml MPO, and under B additionally 1.5 mM DEA NONOate. Control preparations remained free of MPO or DEA NONOate. In Part A additionally 100 U/ml catalase (KAT), 50 mM taurine (TAU), and 10 mM mannitol (MANN) were used.
In FIG. 2B the addition took place of 25 μM of the catalytically effective peroxynitrite destroyer FeTPPS. The duplicate preparations under A were assessed after 5 hours, and those under B after just 3 hours. […] The inhibitors confirm the involvement of hydrogen peroxide (inhibition by catalase), HOCl (inhibition by taurine), and hydroxyl radicals (inhibition by mannitol). Again a bell curve was obtained, the right part of which is dependent upon the availability of HOCl and the effect of hydroxyl radicals.

NO dioxygenase (NOD) = assay: inhibition of NO dioxygenase (DEA NONOate-dependent apoptosis in MKN-45 cells); format: cell-based; details: for effect on available NO concentration (NOD inhibition): as Example 10, 3 hours; for available NO concentration through inhibition of the NOD: broad concentration range
Method: This test is based on the fact that NOD also effectively converts exogenously added NO into nitrate and thus in suitable cell systems (such as for example the tumour cell line MKN-45) can prevent apoptosis induction by NO/peroxynitrite.
This rules out a test substance having an influence over the reaction as a whole, through modulation of the catalase activity. The hydrogen peroxide released following the catalase inhibition is fully decomposed by 20-25 μM of the catalase mimetic EUK-134 (similar to the abovementioned EUK-8, but with a lower peroxidise activity). In this way both the HOCl pathway and the consumption of NO by hydrogen peroxide are prevented. For the modulation of the available NO concentration with the known mechanisms now only the NOD remains. If this is inhibited then the addition of exogenous NO leads to an increased apoptosis induction.
12 500 MKN-45 cells in 100 μl Medium had 200 mM 3-AT, 2.4 mM NAME, 25 μM EUK-134 and the stated concentrations of epothilone B (“EPO”) added. […] Then the stated concentrations of the NO donor DEANONOate were added and the preparations were incubated for a further 2 hours at 37° C. before the percentages of apoptotic cells were determined.
The experiment was carried out in the same way as described in FIG. 10, but with the difference that the stated concentrations of DADS (FIG. 11A) or Taxol (FIG. 11B) were used and the determination of the apoptotic cells took place after 3 hours.

[2] = system: transformed rat fibroblast line 208Fsrc3; assay: autocrine, ROS mediated apoptosis induction in transformed cells; format: cell-based; details: 22 hours; for effect on autocrine apoptosis: 50 mM taurine, 150 μM ABH or 10 mM mannitol; for effect of higher SOD concentrations on apoptosis: concentrations above maximum inhibition
Method: 12 500 cells of the transformed rat fibroblast line 208Fsrc3 per 100 μl complete medium were sown in 96 hole plates. Following growth 20 ng/ml TGF-beta-1 were added to all preparations. To the preparations the stated concentrations of Cu SOD (from bovine erythroctes) or Mn SOD (from E. coli) were added. Some of the preparations received 50 mM of the HOCl receptor taurine (TAU), 150 μM of the peroxidase inhibitor 4-aminobenzoylhydrazide (ABH) or 10 mM of the hydroxyl radical scavenger mannitol. After 22 hours the percentages of apoptotic cells were determined on the basis of the conventional apoptosis characteristics of nuclear condensation, nuclear fragmentation or membrane blebbing in each case in duplicate preparations.

208Fsrc3 cells = assay: EUK-8-mediated apoptosis induction, Cu SOD bell curve; format: cell-based, rat
Method: 12 500 208Fsrc3 cells in 100 μl (96 hole plate) had increasing concentrations of Cu SOD added in the presence of 120 μM EUK-8. After 5 hours the percentage of apoptotic cells was determined in duplicate preparations.
The indicated cell counts (208Fsrc3) in 100 μl medium had increasing concentrations of Cu SOD added in the presence of 120 μM EUK-8. After 1.5 hours in duplicate preparations the percentages of apoptotic cells were determined. There is a direct dependency between the SOD concentration at the vertex and the number of cells per preparation. Since this in turn determines the total concentration of available superoxide anions, there is a correlation between SOD concentration at the vertex and the superoxide anions concentration achieved.

[3] = system: extracellular superoxide anion production of MKN-45 cells; assay: extracellular superoxide anion production of MKN-45 cells (Cu SOD bell curve shift); format: cell-based; details: for stimulation of the NADPH oxidase: higher concentration range of the substances
[4] = system: human lymphoma line Gumbus; assay: catalase deactivation of tumour cells (hydrogen peroxide induced apoptosis); format: cell-based; details: 1.5 hours
Method: 25 000 cells of the human lymphoma line Gumbus/100 μl medium had the stated concentrations of hydrogen peroxide added without 3-AT or in the presence of 50 mM or 100 mM of the catalase inhibitor 3-AT. After 1.5 hours in duplicate preparations the apoptosis induction was determined.
FIG. 14B: Gumbus cells were pre-incubated without Taxol (control) or with 10 μg/ml Taxol for 30 minutes at 37° C. Parallel preparations were either free of further substances or contained 2 mM histidine (singlet oxygen-receptor), 25 μM FeTPPS (catalytically-acting peroxynitrite destroyer) or 25 U/ml catalase (CAT). Following pre-incubation the cells were separated by centrifugation, absorbed in fresh medium and the stated concentrations of hydrogen peroxide added. After 1.5 hours the assessment was performed in the duplicate preparations.

MKN-45 cells = assay: apoptosis induction in MKN-45 tumour cells, single substances and combinations; format: cell-based
Method: 12 500 MKN-45 cells in 100 μl medium were prepared with the stated concentrations of arginine in combination with 0.2 or 20 μM resveratrol. Control preparations received arginine at between 0 and 5 mM, but remained free of resveratrol. After 4.5 hours the percentages of apoptotic cells were determined (duplicate preparations).
In addition, 25 μM caspase-8 inhibitor were added or not added to the stated combinations of arginine and resveratrol. Assessment after 4.5 hours.
12 500 MKN-45 cells in 100 μl had 10 μg/ml Taxol or 0.013 μg/ml Taxol in combination or not with the stated concentrations of resveratrol added. […] After 4.5 hours in duplicate preparations the percentages of apoptotic cells were determined.
12 500 MKN-45 cells in 100 μl medium received either no addition of substances, 25 ng/ml epothilone B, 0.75 ng/ml epothilone B, 25 μg/ml resveratrol or the combination of 0.75 ng/ml epothilone B with 25 μg/ml resveratrol. After 3 hours the percentages of apoptotic cells were determined in duplicate preparations.
12 500 MKN 45 cells in 100 μl medium received none of the stated additives. After 3 hours an assessment was made of the duplicate preparations.

## catalase
[1]
  effect on MPO-mediated apoptosis (HOCl pathway): inhibition

## C=CCSSCC=C [DADS, diallyl disulfide]
NO dioxygenase (NOD)
  effect on available NO concentration (NOD inhibition): led to an increase in the available NO concentration

## NCCS(=O)(=O)O [taurine]
[2]
  effect on autocrine apoptosis: completely inhibited
[1]
  effect on MPO-mediated apoptosis (HOCl pathway): inhibition

## Cu SOD: Cu-containing superoxide dismutase from bovine erythroctes
208Fsrc3 cells; 120 μM EUK-8, 12 500 cells, 5 hours
  effect of Cu SOD on EUK-8-mediated apoptosis: leads to a bell curve
208Fsrc3 cells; 6 250 cells, 120 μM EUK-8, 1.5 hours
  SOD concentration at the vertex (maximum inhibition): 0.57 U/ml
[2]
  effect of higher SOD concentrations on apoptosis: renewed increase in the apoptosis

## C=CCN=C=S [allyl isothiocyanate]
NO dioxygenase (NOD)
  available NO concentration through inhibition of the NOD: increase in the available NO concentration
[3]
  stimulation of the NADPH oxidase: simultaneous stimulation of the NADPH oxidase

## Nc1nc[nH]n1 [3-AT, 3-aminotriazole]
[4]; 50 mM or 100 mM 3-AT
  effect on catalase protection against exogenous hydrogen peroxide: can be reversed

## Photofrin
[3]; 1 μg/ml Photofrin exposed to light, 100 mM 3-AT, 5 hours
  stimulation of the NADPH oxidase by singlet oxygen: significant stimulation of the NADPH oxidase

## CC(=O)O[C@H]1C(=O)[C@@]2(C)[C@H]([C@H](OC(=O)c3ccccc3)[C@]3(O)C[C@H](OC(=O)[C@H](O)[C@@H](NC(=O)c4ccccc4)c4ccccc4)C(C)=C1C3(C)C)[C@]1(OC(C)=O)CO[C@@H]1C[C@@H]2O [Taxol]
[4]; pre-incubation with 10 μg/ml Taxol for 30 minutes, washed
  effect on catalase protection against exogenous hydrogen peroxide: has the same effect as 3-AT
MKN-45 cells; 0.013 μg/ml Taxol alone, 4.5 hours
  apoptosis induction: induced no apoptosis
MKN-45 cells; 10 μg/ml Taxol alone, 4.5 hours
  apoptosis induction: clear apoptosis induction
NO dioxygenase (NOD)
  effect on available NO concentration (NOD inhibition): led to an increase in the available NO concentration
  available NO concentration through inhibition of the NOD: increase in the available NO concentration
[3]; data not shown
  stimulation of the NADPH oxidase compared with epothilone B: behaves in the same way
[3]
  stimulation of the NADPH oxidase: simultaneous stimulation of the NADPH oxidase

## C/C(=C\c1csc(C)n1)[C@@H]1C[C@@H]2O[C@]2(C)CCC[C@H](C)[C@H](O)[C@@H](C)C(=O)C(C)(C)[C@@H](O)CC(=O)O1 [epothilone B]
MKN-45 cells; 0.75 ng/ml epothilone B alone, 3 hours
  apoptosis induction: neither the low epothilone B concentration nor resveratrol on its own was able to induce apoptosis
NO dioxygenase (NOD); all concentrations used, 200 mM 3-AT, 2.4 mM NAME, 25 μM EUK-134, 2 hours
  effect on DEA NONOate-dependent apoptosis (NOD inhibition): led to an increase in the DEA-NONOATE-dependent apoptosis
NO dioxygenase (NOD)
  available NO concentration through inhibition of the NOD: increase in the available NO concentration
[3]
  effect on superoxide anion production: did not demonstrate any effect
  stimulation of the NADPH oxidase: simultaneous stimulation of the NADPH oxidase
[3]; highest concentration of epothilone B, 150 mM 3-AT, 8 hours
  increase in superoxide anion production: fourfold

## Oc1ccc(C=Cc2cc(O)cc(O)c2)cc1 [resveratrol]
MKN-45 cells; 25 μg/ml resveratrol alone, 3 hours
  apoptosis induction: neither the low epothilone B concentration nor resveratrol on its own was able to induce apoptosis
MKN-45 cells; 0.2 or 20 μM resveratrol, 4.5 hours
  apoptosis induction by resveratrol alone: little more than background apoptosis
MKN-45 cells; each stated concentration of resveratrol alone, 4.5 hours
  apoptosis induction: induced no apoptosis
NO dioxygenase (NOD); data not shown
  inhibitory capability of the NOD: no indications of an inhibitory capability of the NOD
[3]; 4 or 20 μg/ml resveratrol, 120 μM EUK-8, 4 hours
  increase in superoxide anion production: 8-16 times

## Oc1cc(O)c2cc(O)c(-c3ccc(O)c(O)c3)[o+]c2c1.[Cl-] [cyanidin chloride]
MKN-45 cells; high cyanidin chloride concentration, 3 hours
  dependence of the effect on caspase-8: dependent upon caspase-8

## OC[C@@H](O)[C@@H](O)[C@H](O)[C@H](O)CO [mannitol]
[2]
  effect on autocrine apoptosis: completely inhibited
[1]
  effect on MPO-mediated apoptosis (HOCl pathway): inhibition

## NNC(=O)c1ccc(N)cc1 [ABH, 4-aminobenzoylhydrazide]
[2]
  effect on autocrine apoptosis: completely inhibited

## N=C(N)NCCC[C@H](N)C(=O)O [arginine]
MKN-45 cells
  apoptosis induction by arginine alone: concentration-dependent apoptosis induction
  dependence of apoptosis on caspase-8 / FAS: strictly dependent upon the involvement of a caspase-8-mediated step

B1: Mn SOD: Mn-containing superoxide dismutase from E. coli (protein, UniProt P00448 2-206, looked up)
Superoxide dismutase [Mn]: SYTLPSLPYAYDALEPHFDKQTMEIHHTKHHQTYVNNANAALESLPEFANLPVEELITKLDQLPADKKTVLRNNAGGHANHSLFWKGLKKGTTLQGDLKAAIERDFGSVDNFKAEFEKAAASRFGSGWAWLVLKGDKLAVVSTANQDSPLMGEAISGASGFPIMGLDVWEHAYYLKFQNRRPDYIKEFWNVVNWDEAAARFAAKK
[2]
  effect of higher SOD concentrations on apoptosis: once the maximum inhibition has been reached this is maintained

B2: MPO: exogenous myeloperoxidase (protein, UniProt P05164 165-745, looked up)
Myeloperoxidase: VTCPEQDKYRTITGMCNNRRSPTLGASNRAFVRWLPAEYEDGFSLPYGWTPGVKRNGFPVALARAVSNEIVRFPTDQLTPDQERSLMFMQWGQLLDHDLDFTPEPAARASFVTGVNCETSCVQQPPCFPLKIPPNDPRIKNQADCIPFFRSCPACPGSNITIRNQINALTSFVDASMVYGSEEPLARNLRNMSNQLGLLAVNQRFQDNGRALLPFDNLHDDPCLLTNRSARIPCFLAGDTRSSEMPELTSMHTLLLREHNRLATELKSLNPRWDGERLYQEARKIVGAMVQIITYRDYLPLVLGPTAMRKYLPTYRSYNDSVDPRIANVFTNAFRYGHTLIQPFMFRLDNRYQPMEPNPRVPLSRVFFASWRVVLEGGIDPILRGLMATPAKLNRQNQIAVDEIRERLFEQVMRIGLDLPALNMQRSRDHGLPGYNAWRRFCGLPQPETVGQLGTVLRNLKLARKLMEQYGTPNNIDIWMGGVSEPLKRKGRVGPLLACIIGTQFRKLRDGDRFWWENEGVFSMQQRQALAQISLPRIICDNTGITTVSKNNIFMSNSYPRDFVNCSTLPALNLASWREAS
[1]
  effect on MPO-mediated apoptosis (HOCl pathway): accelerates the HOCl pathway

— patent US20160220542A1, “SYNERGISTIC ACTIVITY OF MODULATORS OF THE NO METABOLISM AND OF NADPH OXIDASE IN THE SENSITISATION OF TUMOR CELLS” (Universitaetsklinikum Freiburg, priority 2010, published 2016)
